Assay [1] addresses T1, glucosyl ceramide synthase (GCS) (Homo sapiens, UniProt Q16739).
T1 construct: endogenous in cells; host or cells: Hep G2
T1 sequence (Q16739 1-394): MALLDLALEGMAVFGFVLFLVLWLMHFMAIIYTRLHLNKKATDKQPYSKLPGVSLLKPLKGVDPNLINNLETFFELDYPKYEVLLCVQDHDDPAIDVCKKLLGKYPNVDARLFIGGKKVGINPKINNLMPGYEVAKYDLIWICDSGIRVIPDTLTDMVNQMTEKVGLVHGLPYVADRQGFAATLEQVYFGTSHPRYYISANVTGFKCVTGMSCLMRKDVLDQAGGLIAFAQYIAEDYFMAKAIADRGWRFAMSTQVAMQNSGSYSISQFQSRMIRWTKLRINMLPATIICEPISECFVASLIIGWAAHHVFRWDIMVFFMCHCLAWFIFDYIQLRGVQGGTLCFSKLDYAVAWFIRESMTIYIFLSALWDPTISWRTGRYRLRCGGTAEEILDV
Description: GCS activity assay (C6-NBD-ceramide, HPLC). Format: cell-based. As to conditions: for GCS activity, effect of treatment: Hep G2, 0-200 µM. The method, then: (§1) The cell line was grown in RPMI-1640 medium supplemented with L-glutamine 2 mM, HEPESNa 25 mM, penicillin 100 U/mL, streptomycin 100 μg/mL and 10% […] (FBS) at 37 °C in a humidified atmosphere containing 5% CO2. Hep G2 cells were seeded at 1 × 10^6 cells/mL and sub cultured every 2–3 days after 60–80% confluence was reached. To prepare the lysates cells attached to the culture plate were scraped off with a cell scraper and collected in a 1.5 mL tube by centrifugation. The cell pellets were rinsed with PBS, suspended in sterile water, and then lysed by sonication. For each experiment, the cells were treated separately with increasing concentrations of silibinin derivatives (0, 25, 50, 75, 100, 125, 150, 175 and 200 μM) and incubated for 48 h.
To determine GCS activities, the fluorescent acceptor substrate C6-4-nitrobenzo-2-oxa-1,3-diazole (NBD)-ceramide and a normal-phase HPLC were used. Acceptor substrate, 50 pM of C6-NBD-Cer and 6.5 nM of lecithin were mixed in 100 µL of ethanol and then the solvent was evaporated. Next, 10 µL of water was added and the mixture was sonicated to form liposomes. For the GCS assay, 50 µL of reaction mixture contains 500 µM UDP-Glc, 1mM EDTA, 10 µL of C6-NBD-Cer liposome and 20 µL of an appropriate amount of enzyme in lysis buffer. Addition of conduritol B epoxide (CBE) at 2.5 mM is effective at inhibiting the glycosidase activity. Standard assays were carried out at 37 °C for 1 h. The reaction was stopped by adding 200 µL of chloroform/methanol (2:1, v/v). After a few seconds of vortexing, 5 µL of 500 µM KCl was added and then centrifuged. After the organic phase had dried up, lipids were dissolved in 200 µL of isopropyl alcohol/n-hexane/H2O (55:44:1) and then transferred to a glass vial in auto sampler. A 100 µL aliquot of sample was automatically loaded onto a normal-phase column (Intersil SIL 150A-5, 4.6 x 250 mm, GL Sciences, Japan) and eluted with isopropyl alcohol/n-hexane/H2O (55:44:1) at a flow rate of 2.0 mL/min. Fluorescence was determined using a fluorescent detector (Hitachi L-7480) set to excitation and emission wavelengths of 470 and 530 nm, respectively. The fluorescent peaks were identified by comparing their retention times with those of standards ([37]).

Assay [2] concerns Neutral sphingomyelinase (NSMase). Description: NSMase activity assay (Amplex Red kit). The format is cell-based, human. Conditions: for NSMase activity in comparison with control: Hep G2, 125 µM and higher concentrations. How it is done:
as §1
Amplex™ Red NSMase Assay Kit (AAT Bioquest®, Inc. product no: 13620) was used to determine NSMases activity. The kit uses Amplite™ Red as a colorimetric probe to indirectly quantify the phosphocholine produced from the hydrolysis of sphingomyelin by NSMase.
Cells were washed with ice cold PBS and homogenized in neutral lysis buffer (20 mM Tris–HCl pH 7.4, 2 mM EDTA, 5 mM EGTA, 1 mM PMSF, 1% protein cocktail inhibitor and 1 mM sodium orthovanadate) for NSMase assays. Samples were kept on ice 15 min and centrifuged at 14,000 × g for 20 min at 4 °C. 100 µL of each supernatant fraction were incubated at 37 °C for 1hour with working solution. The fluorescence count of produced resorophine in the previous step was measured with a fluorescence micro plate reader by using excitation at 540 nm and emission at 590 nm ([36]).

The subject of the next assay is Hep G2 cells. Put plainly: Quantifying of total ceramide (HPLC, NDA derivatisation). Format: cell-based, human. Conditions: for Ceramide content with respect to control: Hep G2, 50 µM and higher concentrations. The method, then: as §1
Sample (3 µL of cell extract cell lysate) was mixed with 3 µL of an ACDase assay solution (0.2 M citrate–phosphate buffer, pH 4.5, 0.3 M NaCl, 0.2% Igepal CA-630, 10% FBS, 50 ng/µL ACDase) and incubated at 37 °C for 1 h. The reaction was stopped by adding ethanol (1:5) and centrifuged for 5 min at 13,000 × g. 10 µL of the supernatant was transferred into 20 µL of 25 mM sodium borate buffer (pH 9.0) containing 1.25 mM sodium cyanide and 1.25 mM NDA. The reaction mixture was incubated at 50 °C for 10min, diluted with ethanol (1:4), and centrifuged for 5 min at 13,000 × g. 5 µL of the supernatant was applied to high-performance liquid chromatography (HPLC) for analysis. The HPLC system consisted of Waters 600 S controller, 616 pump, 474 scanning fluorescence detector, 717 auto sampler (Waters, Milford, MA) and BetaBasic-C18 (20 cm × 4.6 mm) column with 3 µM particle size (Thermo Electron, Bellefonte, PA) which was not temperature regulated. All chromatographic procedures were carried out at room temperature using a mobile phase of 90% methanol at a flow rate of 1.0 mL/min. The fluorescent derivatives were monitored at the excitation wavelength of 252 nm and the emission wavelength of 483 nm ([35]). […]

Take `COc1cc([C@H]2Oc3cc([C@H]4Oc5cc(O)cc(O)c5C(=O)[C@@H]4O)ccc3O[C@@H]2CO)ccc1O` [SA, silybin A]: the “GCS activity, effect of treatment” value in assay [1] was “dose dependent inhibition”. Further, the “NSMase activity in comparison with control” value (“NSMase activity in comparison” for short) in assay [2] was “considerable increase”.

As for `COc1cc([C@@H]2Oc3cc([C@H]4Oc5cc(O)cc(O)c5C(=O)[C@@H]4O)ccc3O[C@H]2CO)ccc1O` [SB, silybin B], the “GCS activity, effect of treatment” value in assay [1] was “dose dependent inhibition”. Besides, the “NSMase activity in comparison” value in assay [2] was “considerable increase”.

As to `COc1cc([C@H]2Oc3cc([C@H]4Oc5cc(O)cc(O)c5C(=O)[C@@H]4OC(=O)c4cc(O)c(O)c(O)c4)ccc3O[C@@H]2CO)ccc1O` [SGA, 3-O-galloyl silybin A], in the assay on Hep G2 cells, the “Ceramide content with respect to control” value is “significant rises”. In assay [1], the “GCS activity, effect of treatment” value is on record as “did not indicate any significant changes”. Further, the “NSMase activity in comparison” value in assay [2] is “considerable increase”.

For the compound `COc1cc([C@@H]2Oc3cc([C@H]4Oc5cc(O)cc(O)c5C(=O)[C@@H]4OC(=O)c4cc(O)c(O)c(O)c4)ccc3O[C@H]2CO)ccc1O` [SGB, 3-O-galloyl silybin B], the “Ceramide content with respect to control” value in the assay on Hep G2 cells is “significant rises”. In addition, in the assay with Hep G2 cells (Hep G2, 200 µM (the highest dose)), the “Maximum ceramide level compared to control” value is “approximately 3.7 fold”. Further, the “GCS activity, effect of treatment” value in assay [1] is “dose dependent inhibition”. The “GCS activity (% of control)” value in assay [1] (Hep G2, 200 µM) is on record as 18 % of control. Further, the “NSMase activity with respect to control” value in assay [2] (Hep G2, all concentrations (0-200 µM)) is “did not exert any significant change”.
